Measured values reported in PubChem BioAssay (NCI).
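Cells were grown in 96-well plates and exposed to each compound for 48 hours at five concentrations; endpoints were interpolated linearly between bracketing concentrations, or set to the highest concentration if not reached. GI50 = concentration required for 50% inhibition of growth. TGI: concentration producing complete growth inhibition.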

Assays:
Assay in all cases: DTP human tumour cell line panel, 48 h
SNB-75 CNS = system: SNB-75 CNS
TK-10 renal = system: TK-10 renal
SF-295 CNS = system: SF-295 CNS
NCI/ADR-RES ovarian = system: NCI/ADR-RES ovarian
MDA-MB-231 breast = system: MDA-MB-231 breast
HOP-92 NSCLC = system: HOP-92 NSCLC
DU-145 prostate = system: DU-145 prostate
HOP-62 NSCLC = system: HOP-62 NSCLC
PC-3 prostate = system: PC-3 prostate
SN12C renal = system: SN12C renal
UACC-62 melanoma = system: UACC-62 melanoma
MCF7 breast = system: MCF7 breast
HCT-116 colon = system: HCT-116 colon
NCI-H460 lung = system: NCI-H460 lung
OVCAR-8 ovarian = system: OVCAR-8 ovarian
HS 578T breast = system: HS 578T breast
RPMI-8226 leukemia = system: RPMI-8226 leukemia
RXF 393 renal = system: RXF 393 renal
OVCAR-4 ovarian = system: OVCAR-4 ovarian
UO-31 renal = system: UO-31 renal
SNB-19 CNS = system: SNB-19 CNS
SK-MEL-5 melanoma = system: SK-MEL-5 melanoma
MALME-3M melanoma = system: MALME-3M melanoma
BT-549 breast = system: BT-549 breast
T-47D breast = system: T-47D breast
NCI-H522 lung = system: NCI-H522 lung
OVCAR-5 ovarian = system: OVCAR-5 ovarian
SK-OV-3 ovarian = system: SK-OV-3 ovarian
COLO 205 colon = system: COLO 205 colon
LOX IMVI melanoma = system: LOX IMVI melanoma
OVCAR-3 ovarian = system: OVCAR-3 ovarian
NCI-H23 lung = system: NCI-H23 lung
HT29 colon = system: HT29 colon
HCT-15 colon = system: HCT-15 colon
IGROV1 ovarian = system: IGROV1 ovarian
786-0 renal = system: 786-0 renal
U251 CNS = system: U251 CNS
KM12 colon = system: KM12 colon
A498 renal = system: A498 renal
MDA-MB-435 = system: MDA-MB-435
SK-MEL-2 melanoma = system: SK-MEL-2 melanoma
SF-268 CNS = system: SF-268 CNS
CAKI-1 renal = system: CAKI-1 renal
ACHN renal = system: ACHN renal
SF-539 CNS = system: SF-539 CNS
SR leukemia = system: SR leukemia
HL-60(TB) leukemia = system: HL-60(TB) leukemia
SW-620 colon = system: SW-620 colon
M14 melanoma = system: M14 melanoma
NCI-H226 lung = system: NCI-H226 lung
CCRF-CEM leukemia = system: CCRF-CEM leukemia
HCC-2998 colon = system: HCC-2998 colon
A549 NSCLC = system: A549 NSCLC
EKVX NSCLC = system: EKVX NSCLC
MOLT-4 leukemia = system: MOLT-4 leukemia
SK-MEL-28 melanoma = system: SK-MEL-28 melanoma
UACC-257 melanoma = system: UACC-257 melanoma
K-562 leukemia = system: K-562 leukemia

## C=C1C(=O)O[C@H]2[C@H]1CC/C(Cn1cc(CNC(=O)c3cc4ccccc4[nH]3)nn1)=C\CC[C@@]1(C)O[C@@H]21
SNB-75 CNS
  GI50: 10.4 µM
  TGI: 22.4 µM
TK-10 renal
  GI50: 4.41 µM
  TGI: 15.2 µM
SF-295 CNS
  GI50: 18.9 µM
  TGI: 39 µM
NCI/ADR-RES ovarian
  GI50: 69.3 µM
  TGI: > 100 µM
MDA-MB-231 breast
  GI50: 1.97 µM
  TGI: 3.78 µM
HOP-92 NSCLC
  GI50: 1.53 µM
  TGI: 3.16 µM
DU-145 prostate
  GI50: 4.07 µM
  TGI: 15.1 µM
HOP-62 NSCLC
  GI50: 13.3 µM
  TGI: 31.3 µM
PC-3 prostate
  GI50: 1.88 µM
  TGI: 4.79 µM
SN12C renal
  GI50: 1.97 µM
  TGI: 4.66 µM
UACC-62 melanoma
  GI50: 1.57 µM
  TGI: 3.33 µM
MCF7 breast
  GI50: 2.94 µM
  TGI: 15.4 µM
HCT-116 colon
  GI50: 1.59 µM
  TGI: 3.56 µM
NCI-H460 lung
  GI50: 20.1 µM
  TGI: 41 µM
OVCAR-8 ovarian
  GI50: 4.69 µM
  TGI: 17.2 µM
HS 578T breast
  GI50: 19 µM
  TGI: 55.4 µM
RPMI-8226 leukemia
  GI50: 3.37 µM
  TGI: 9.34 µM
RXF 393 renal
  GI50: 2.16 µM
  TGI: 4.28 µM
OVCAR-4 ovarian
  GI50: 4.52 µM
  TGI: 17.1 µM
UO-31 renal
  GI50: 10.4 µM
  TGI: 22.1 µM
SNB-19 CNS
  GI50: 7.44 µM
  TGI: 20.4 µM
SK-MEL-5 melanoma
  GI50: 8.1 µM
  TGI: 23.4 µM
MALME-3M melanoma
  GI50: 1.75 µM
  TGI: 3.55 µM
BT-549 breast
  GI50: 4.09 µM
  TGI: 16.5 µM
T-47D breast
  GI50: 3.55 µM
  TGI: 20.4 µM
NCI-H522 lung
  GI50: 0.921 µM
  TGI: 2.84 µM
OVCAR-5 ovarian
  GI50: 2.51 µM
  TGI: 9.07 µM
SK-OV-3 ovarian
  GI50: 50.4 µM
  TGI: > 100 µM
COLO 205 colon
  GI50: 2.13 µM
  TGI: 4.48 µM
LOX IMVI melanoma
  GI50: 1.82 µM
  TGI: 4.06 µM
OVCAR-3 ovarian
  GI50: 2.12 µM
  TGI: 5.63 µM
NCI-H23 lung
  GI50: 14.3 µM
  TGI: 34.5 µM
HT29 colon
  GI50: 2.85 µM
  TGI: 10.1 µM
HCT-15 colon
  GI50: 10.2 µM
  TGI: 27.4 µM
IGROV1 ovarian
  GI50: 3.24 µM
  TGI: 10.6 µM
786-0 renal
  GI50: 2.96 µM
  TGI: 9.61 µM
U251 CNS
  GI50: 8.24 µM
  TGI: 21.8 µM
KM12 colon
  GI50: 11.4 µM
  TGI: 26.7 µM
A498 renal
  GI50: 18.9 µM
  TGI: 36 µM
MDA-MB-435
  GI50: 2.82 µM
  TGI: 9.7 µM
SK-MEL-2 melanoma
  GI50: 6.43 µM
  TGI: 23 µM
SF-268 CNS
  GI50: 7.26 µM
  TGI: 22.5 µM
CAKI-1 renal
  GI50: 2.26 µM
  TGI: 12.2 µM
ACHN renal
  GI50: 4.73 µM
  TGI: 17.2 µM
SF-539 CNS
  GI50: 2.85 µM
  TGI: 8.65 µM
SR leukemia
  GI50: 2.69 µM
  TGI: 25.7 µM
HL-60(TB) leukemia
  GI50: 2.45 µM
  TGI: 5.79 µM
SW-620 colon
  GI50: 1.97 µM
  TGI: 3.94 µM
M14 melanoma
  GI50: 2.09 µM
  TGI: 6.27 µM
NCI-H226 lung
  GI50: 2.57 µM
  TGI: 6.15 µM
CCRF-CEM leukemia
  GI50: 0.527 µM
  TGI: 5.21 µM
HCC-2998 colon
  GI50: 14 µM
  TGI: 31.5 µM
A549 NSCLC
  GI50: 22.1 µM
  TGI: 46.5 µM
EKVX NSCLC
  GI50: 13.2 µM
  TGI: 30.2 µM
MOLT-4 leukemia
  GI50: 2.71 µM
  TGI: 7.15 µM
SK-MEL-28 melanoma
  GI50: 2.18 µM
  TGI: 4.69 µM
UACC-257 melanoma
  GI50: 4 µM
  TGI: 16 µM

## O=C(/C=C/CN1CCCCC1)Nc1cc2c(Nc3ccc(F)c(Cl)c3F)ncnc2cc1OCCOC(F)F
SNB-75 CNS
  GI50: 0.265 µM
  TGI: 4.81 µM
TK-10 renal
  GI50: < 0.01 µM
  TGI: 1.36 µM
SF-295 CNS
  GI50: 1.72 µM
  TGI: 6.42 µM
NCI/ADR-RES ovarian
  GI50: 0.446 µM
  TGI: 3.82 µM
MDA-MB-231 breast
  GI50: 0.882 µM
  TGI: 4.88 µM
HOP-92 NSCLC
  GI50: 0.0548 µM
  TGI: 1.12 µM
DU-145 prostate
  GI50: 0.265 µM
  TGI: 6.24 µM
HOP-62 NSCLC
  GI50: 1.64 µM
  TGI: 7.04 µM
PC-3 prostate
  GI50: 1.68 µM
  TGI: 8.43 µM
SN12C renal
  GI50: 0.318 µM
  TGI: 5.93 µM
UACC-62 melanoma
  GI50: 1.63 µM
  TGI: 5.11 µM
MCF7 breast
  GI50: 1.35 µM
  TGI: 10.3 µM
HCT-116 colon
  GI50: 1.31 µM
  TGI: 8.43 µM
NCI-H460 lung
  GI50: 2.01 µM
  TGI: 11 µM
OVCAR-8 ovarian
  GI50: 0.805 µM
  TGI: 10.3 µM
HS 578T breast
  GI50: 0.873 µM
  TGI: 6.05 µM
RPMI-8226 leukemia
  GI50: 1.01 µM
  TGI: 3.94 µM
RXF 393 renal
  GI50: 0.497 µM
  TGI: 2.38 µM
OVCAR-4 ovarian
  GI50: 1.23 µM
  TGI: 13 µM
UO-31 renal
  GI50: < 0.0116 µM
  TGI: 5.89 µM
SNB-19 CNS
  GI50: 1.94 µM
  TGI: 13.5 µM
K-562 leukemia
  GI50: 0.715 µM
  TGI: 8.12 µM
SK-MEL-5 melanoma
  GI50: 1.54 µM
  TGI: 3.07 µM
MALME-3M melanoma
  GI50: 1.18 µM
  TGI: 2.91 µM
BT-549 breast
  GI50: 1.97 µM
  TGI: 8.62 µM
T-47D breast
  GI50: 0.0535 µM
  TGI: 1.37 µM
NCI-H522 lung
  GI50: 0.0493 µM
  TGI: 1.8 µM
OVCAR-5 ovarian
  GI50: 0.406 µM
  TGI: 13.6 µM
SK-OV-3 ovarian
  GI50: < 0.0201 µM
  TGI: 0.263 µM
COLO 205 colon
  GI50: 1.6 µM
  TGI: 4.93 µM
LOX IMVI melanoma
  GI50: 1.22 µM
  TGI: 2.59 µM
OVCAR-3 ovarian
  GI50: 0.284 µM
  TGI: 2.55 µM
NCI-H23 lung
  GI50: 1.67 µM
  TGI: 6.99 µM
HT29 colon
  GI50: 0.919 µM
  TGI: 5.77 µM
HCT-15 colon
  GI50: 0.633 µM
  TGI: 3.86 µM
IGROV1 ovarian
  GI50: < 0.0182 µM
  TGI: 0.815 µM
786-0 renal
  GI50: 0.781 µM
  TGI: 6.38 µM
U251 CNS
  GI50: 1.87 µM
  TGI: 9.25 µM
KM12 colon
  GI50: 2.44 µM
  TGI: 9.01 µM
A498 renal
  GI50: 0.299 µM
  TGI: 2.02 µM
MDA-MB-435
  GI50: 1.35 µM
  TGI: 5.81 µM
SK-MEL-2 melanoma
  GI50: 1.85 µM
  TGI: 4.7 µM
SF-268 CNS
  GI50: 1.14 µM
  TGI: 4.59 µM
CAKI-1 renal
  GI50: < 0.0151 µM
  TGI: 1.44 µM
ACHN renal
  GI50: < 0.01 µM
  TGI: 1.55 µM
SF-539 CNS
  GI50: 1.12 µM
  TGI: 3.56 µM
SR leukemia
  GI50: 0.598 µM
  TGI: 4.24 µM
HL-60(TB) leukemia
  GI50: 1.4 µM
  TGI: 5.68 µM
SW-620 colon
  GI50: 1.49 µM
  TGI: 8.17 µM
M14 melanoma
  GI50: 2.12 µM
  TGI: 6.61 µM
NCI-H226 lung
  GI50: 1.48 µM
  TGI: 5.73 µM
CCRF-CEM leukemia
  GI50: 2.42 µM
  TGI: 10.7 µM
HCC-2998 colon
  GI50: 1.6 µM
  TGI: 3.97 µM
A549 NSCLC
  GI50: 0.585 µM
  TGI: 9.92 µM
EKVX NSCLC
  GI50: 0.0646 µM
  TGI: 5.22 µM
MOLT-4 leukemia
  GI50: 1.15 µM
  TGI: 5.27 µM
SK-MEL-28 melanoma
  GI50: 2.27 µM
  TGI: 9.19 µM
UACC-257 melanoma
  GI50: 1.74 µM
  TGI: 5.64 µM
